Source: patent publication US20110318375A1, “Immunomodulatory Therapeutic Agents” (priority 2009, published 2011)

Columns and labels:
Cytokine 12 Panel [1] = assay: Cytokine 12 panel, oral daily dosing with 3 mg Fibrinopeptide A (Table 5); format: in vivo, human; parameters: IL-10 / TNF-α / IL-2 / IL-12: unit not given here; conditions: for IFN-γ / IL-4 / IL-5 / IL-6 / IL-8 / IL-13: nl: 0-5; for IL-12: nl: 0-6; for IL-2: nl: 0-12; for IL-10: nl: 0-18; for TNF-α: nl: 0-22; for IL-1β: nl: 0-36; for IL-2R: nl: 0-1033
From the text: [table] […] One of these patients was the same patient previously utilized, while the other was relatively neve to any previous Fibrinopeptide A treatment. The patient had taken two doses orally approximately seven weeks prior to this treatment, no lab work had been obtained with this prior dosing. […] Note the response in the IL-10 and IL-1b in this patient similar to the other patients. However, this patient return back toward baseline values much more rapidly than the other patients, accentuating the variability expected in this type of response from one patient to another. This also validates the efficacy of oral administration to achieve an anti-inflammatory/immunomodulatory benefit.

mouse antibody IgE = conditions: cited from earlier work
Cytokine 12 Panel [2] = assay: Cytokine 12 panel after oral peptide preparation taken daily for two weeks; format: in vivo, human; conditions: Pre: prior to the IV dose, 4 weeks after oral dosing
From the text: Peptide was suspended in an appropriate medium and a healthy volunteer took the preparation daily for two weeks, drawing blood for a cytokine 12 panel every five days. Due to the size of the molecules absorption from the mucosal route seemed unlikely, and the rapid digestion of peptides in the stomach would eliminate their efficacy in a true oral route. This same healthy volunteer had lab work drawn right before receiving an IV dose of synthetic Fibrinopeptide A. The IV dose was expected to have a more profound therapeutic effect, since treatment was simulating a normal intravascular biologic process. […] (Table 3). [table]

Cytokine 12 Panel [3] = assay: Cytokine 12 panels after IV dose of 50 mg synthetic Fibrinopeptide A; format: in vivo, human; parameters: IL-10 / TNF-α / IL-2 / IL-12: unit not given here; conditions: for IFN-γ / IL-4 / IL-5 / IL-6 / IL-8 / IL-13: nl: 0-5; for IL-12: nl: 0-6; for IL-2: nl: 0-12; for IL-10: nl: 0-18; for TNF-α: nl: 0-22; for IL-1β: nl: 0-36; for IL-2R: nl: 0-1033
From the text: Peptide was suspended in an appropriate medium and a healthy volunteer took the preparation daily for two weeks, drawing blood for a cytokine 12 panel every five days. Due to the size of the molecules absorption from the mucosal route seemed unlikely, and the rapid digestion of peptides in the stomach would eliminate their efficacy in a true oral route. This same healthy volunteer had lab work drawn right before receiving an IV dose of synthetic Fibrinopeptide A. The IV dose was expected to have a more profound therapeutic effect, since treatment was simulating a normal intravascular biologic process. […] (Table 3). [table] In addition to these elevations, a mild elevation of Interleukin-6 was also observed. Interleukin-6 is a pro-inflammatory cytokine and is a very strong stimulator of the innate immune system. […] The most significant of these tests is the blood drawn one month after the IV dose was given. In this test the marked elevation of at least IL-10 and IL-1β, which had been present in each of the other dosages given by any route, was observed. […] This location for primary activity also explains the stimulation of the adaptive immune system over the innate immune response, as the lymphatic system is more involved in the adaptive response, while the vascular system is more involved in the innate response. The response to orally administered Fibrinopeptide A also solidifies this location of activity as transmucosal absorption occurs almost exclusively through the lymphatic route, occurs rapidly for those molecules which are absorbed, and the oral submucosal region (especially the sublingual region) has an extensive lymphatic drainage with rapid access to the cells which would produce this type of response while at least partially being shielded from the enzymes that inactivate the peptides of this invention. Since chronic fibrin deposition in the extravascular space is always pathologic and pro-inflammatory, it is not surprising that patients have a mechanism triggered by this deposition to aid in the removal of these substances. […] By signaling the need for removal from the extravascular space, the same process should occur for similar chronic deposits in the subintimal space.

## ADSGEGDFLAEGGGV (listed as Homo sapiens) [Fibrinopeptide A]
Cytokine 12 Panel [1]; Off 1 Week
  IFN-γ: 5
  IL-4: <5
  IL-5: 5
  IL-6: 5
  IL-8: 8
  IL-13: 8
  IL-12: 6
  IL-2: 6
  IL-10: 28
  TNF-α: <5
  IL-1β: <5
  IL-2R: 147
Cytokine 12 Panel [1]; giving just Fibrinopeptide A
  elevation of Interleukin-13: does not result in an elevation
Cytokine 12 Panel [1]; oral daily 3 mg, 1 Week
  IFN-γ: <5
  IL-4: <5
  IL-5: <5
  IL-6: <5
  IL-8: <5
  IL-13: <5
  IL-12: <5
  IL-2: <5
  IL-10: 137
  TNF-α: <5
  IL-1β: 30
  IL-2R: 423
Mouse antibody IgE
  deglycosylation of IgE: deglycosylates mouse antibody IgE
Cytokine 12 Panel [2]; nl: 0-5
  IFN-γ: <5
  IL-4: <5
  IL-5: <5
  IL-6: 13
  IL-8: <5
Cytokine 12 Panel [2]; nl: 0-6
  IL-12: <5
Cytokine 12 Panel [2]; nl: 0-12
  IL-2: <5
Cytokine 12 Panel [2]; nl: 0-18
  IL-10: 96
Cytokine 12 Panel [2]; nl: 0-22
  TNF-α: <5
Cytokine 12 Panel [2]; nl: 0-36
  IL-1β: 52
Cytokine 12 Panel [2]; nl: 0-1033
  IL-2R: 550
Cytokine 12 Panel [3]; 10 Hours after IV 50 mg
  IFN-γ: <5
  IL-4: <5
  IL-5: <5
  IL-6: 11
  IL-8: <5
  IL-12: <5
  IL-2: <5
  IL-10: 87
  TNF-α: <5
  IL-1β: 52
  IL-2R: 475
Cytokine 12 Panel [3]; 14 hours after IV 50 mg
  IFN-γ: <5
  IL-4: <5
  IL-5: <5
  IL-6: 10
  IL-8: <5
  IL-12: <5
  IL-2: <5
  IL-10: 87
  TNF-α: <5
  IL-1β: 54
  IL-2R: 492
Cytokine 12 Panel [3]; 60 hours after IV 50 mg
  IFN-γ: <5
  IL-4: <5
  IL-5: <5
  IL-6: 7
  IL-8: <5
  IL-12: <5
  IL-2: <5
  IL-10: 74
  TNF-α: <5
  IL-1β: 54
  IL-2R: 425
Cytokine 12 Panel [3]; 30 days after IV 50 mg
  IFN-γ: <5
  IL-4: <5
  IL-5: <5
  IL-6: <5
  IL-8: <5
  IL-13: <5
  IL-12: <5
  IL-2: <5
  IL-10: 22
  TNF-α: <5
  IL-1β: <5
  IL-2R: 546
Cytokine 12 Panel [3]; IV dose 10 times stronger than the subcutaneous dosage given previously
  response of the cytokine panel to IV administration: no appreciable response
Cytokine 12 Panel [3]; Pre and 1 month after IV Use
  IFN-γ: <5
  IL-4: <5
  IL-5: <5
  IL-6: <5
  IL-8: <5
  IL-13: <5
  IL-12: <5
  IL-2: <5
  IL-10: 22
  TNF-α: <5
  IL-1β: <5
  IL-2R: 546
